Experimental data as given in US20160081901A1, “COMPOSITIONS AND METHODS FOR HAIR GROWTH” (WUHAN OPTICS VALLEY BRIDGEBIOMED INTERNATIONAL CORPORATION, priority 2013, published 2016).

Experiments:
[1] = target: T1, bradykinin (BK) B2 receptors (Homo sapiens, UniProt P30411); experiment: PG secretion in cell supernatant by enzyme immunoassay (EIA), relative to 1 μM bradykinin; type: cell-based; conditions: for PG release (%) compared with BK-1 μM (100%): 1 h, 37° C.
T1 construct: The cell strains used in the study were human primary vein endothelial cells (HPVEC) and human aortic smooth muscle cells (HASMC); endogenous in cells; host or cells: HPVEC and HASMC (human primary cells)
T1 sequence (P30411 1-391): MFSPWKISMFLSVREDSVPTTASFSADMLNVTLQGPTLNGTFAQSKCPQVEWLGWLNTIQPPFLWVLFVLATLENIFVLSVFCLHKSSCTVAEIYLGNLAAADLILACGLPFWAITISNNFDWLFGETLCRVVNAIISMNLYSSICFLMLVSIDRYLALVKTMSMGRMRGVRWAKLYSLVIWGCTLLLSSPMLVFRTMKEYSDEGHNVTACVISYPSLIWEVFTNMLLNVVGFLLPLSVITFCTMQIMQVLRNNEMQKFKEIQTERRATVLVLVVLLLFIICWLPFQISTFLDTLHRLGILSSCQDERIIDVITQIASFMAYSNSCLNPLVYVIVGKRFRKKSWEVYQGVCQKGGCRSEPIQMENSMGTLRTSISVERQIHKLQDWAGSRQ
Description: We studied angiotensin II receptor antagonists activating bradykinin (BK) B2 receptors to promote secretion of Prostaglandin. Losartan, candesartan, telmisartan were selected for the study described below, and bradykinin was used as control. Implantation Two cell lines were transferred into T-75 cell culture flask, and then the instructions of PG kit were strictly followed when cells have reached the appropriate density. Day 1 Cells were seeded in 24 well dishes with minimum medium and allowed to adhere overnight. Day 2 Cells were starved in the serum-free conditioned medium. […] The supernatant was collected after incubation for later use. Day 4 24 well dishes were washed and then dyed for 45-90 min, and then the OD value was measured for analysis. Therefore OD values of BK B2 receptor agonists were obtained and the EC50, EMAX were calculated. The cell strains used in the study were human primary vein endothelial cells (HPVEC) and human aortic smooth muscle cells (HASMC).
In order to detect endogenous prostaglandin, enzyme immunoassay (EIA) was used to determine the amount of prostaglandin and subtypes thereof in the cell supernatant described above.

B2 receptor [2] = target: T2, B2 receptor (Homo sapiens, UniProt P30411); experiment: Inhibition of PG secretion by B2 receptor inhibitor HOE-140; type: cell-based; conditions: for PG synthesis blocked by 1 μM HOE-140: PG synthesis caused by 10 μM of the compound
T2 construct: The cell strains used in the study were human primary vein endothelial cells (HPVEC) and human aortic smooth muscle cells (HASMC); endogenous in cells; host or cells: HPVEC and HASMC (human primary cells)
T2 sequence (P30411 1-391): T1 sequence (P30411 1-391)
Description: The detailed protocol for the elucidation of inhibited PG secretion by B2 receptor inhibitor HOE-140 was shown as follows. Two different cell lines were transferred into T-75 cell culture flask, and then the instructions of PG kit were strictly followed when cells have reached the appropriate density. Day 1. Cells were seeded in 24 well dishes with minimum medium and allowed to adhere overnight. Day 2. Cells were starved in the serum-free conditioned medium. Day 3. […] Cells were incubated at 37° C. for 1 h. The supernatant was collected after incubation for later use. Day 4. 24 well dishes were washed and then dyed for 45-90 min, and then the quantitative analysis was carried out. Therefore OD values (420 nm) of BK B2 receptor agonists were obtained and the EC50, EMAX were calculated.
Therefore we could conclude the angiotensin II type 1 receptor antagonists influence PG secretion via B2 receptor since HOE-140 acts as B2 receptor antagonist

B2 receptor [3] = target: T2, B2 receptor; experiment: PG subtype secretion (EIA) induced by Candesartan in HPVEC and HASMC; type: cell-based; conditions: for PGE2 (%) / PGF-2a (%): 10 μM Candesartan
Description: These percentage values above were all calibrated with respect to bradykinin.

[4] = longest of all commercially available ARBs; cited from earlier work
[5] = 10 μM, calibrated with respect to bradykinin
[6] = HASMC, calibrated with respect to bradykinin
[7] = HPVEC, calibrated with respect to bradykinin

CCOc1nc2cccc(C(=O)O)c2n1Cc1ccc(-c2ccccc2-c2nn[nH]n2)cc1 [Candesartan, 2-ethoxy-1-({4-[2-(2H-1,2,3,4-tetrazol-5-yl)phenyl]phenyl}methyl)-1H-1,3-benzodiazole-7-carboxylic acid]
PG release (%) compared with BK-1 μM (100%) ([1]; 1 μM): 16.51 ± 2.02%
PG release (%) compared with BK-1 μM (100%) ([1]; 3 μM): 26.91 ± 4.13%
effect relative to the effect of 1 μM of bradykinin (PG secretion) ([1]; 10 μM): ~50%
PG release (%) compared with BK-1 μM (100%) ([1]; 10 μM): 46.19 ± 5.65%
effect relative to the effect of 1 μM of bradykinin (PG secretion) ([1]; 30 μM): ~90%
PG release (%) compared with BK-1 μM (100%) ([1]; 30 μM): 86.83 ± 7.21%
PG release (%) compared with BK-1 μM (100%) ([1]; 30 nm): 6.21 ± 2.3%
PG release (%) compared with BK-1 μM (100%) ([1]; 100 nm): 11.27 ± 2.74%
PG release (%) compared with BK-1 μM (100%) ([1]; 300 nm): 12.91 ± 3.08%
PG relaease (%) compared with BK-1 μM (100%) (B2 receptor [2]; 10 μM + 1 μM HOE-140): 6 ± 3.12%
PG relaease (%) compared with BK-1 μM (100%) (B2 receptor [2]; 10 μM, without HOE-140): 46.19 ± 5.65%
PG synthesis blocked by 1 μM HOE-140 (B2 receptor [2]): 85%
Prostaglandin D secretion (B2 receptor [3]; 10 μM): no Prostaglandin D detected
share of PG secretion that was Prostaglandin E2 (B2 receptor [3]; [5]): 30%
share of PG secretion that was Prostaglandin F-2a (B2 receptor [3]; [5]): roughly 6%
PGE2 (%) (B2 receptor [3]; [6]): 37.13 ± 9.85%
PGF-2a (%) (B2 receptor [3]; [6]): 6.21 ± 2.56%
PGE2 (%) (B2 receptor [3]; [7]): 32.54 ± 6.93%
PGF-2a (%) (B2 receptor [3]; [7]): 5.47 ± 3.32%

CCCCc1nc(Cl)c(CO)n1Cc1ccc(-c2ccccc2-c2nn[nH]n2)cc1 [Losartan, (2-butyl-4-chloro-1-{[2′-(1H-tetrazol-5-yl)biphenyl-4-yl]methyl}-1H-imidazol-5-yl)methanol]
PG release (%) compared with BK-1 μM (100%) ([1]; 1 μM): 8.16 ± 2.43%
PG release (%) compared with BK-1 μM (100%) ([1]; 3 μM): 12.06 ± 4.12%
PG release (%) compared with BK-1 μM (100%) ([1]; 10 μM): 23.18 ± 3.65%
effect relative to the effect of 1 μM of bradykinin (PG secretion) ([1]; 30 μM): ~60%
PG release (%) compared with BK-1 μM (100%) ([1]; 30 μM): 58.17 ± 6.32%
PG release (%) compared with BK-1 μM (100%) ([1]; 30 nm): 0.18 ± 0.74%
PG release (%) compared with BK-1 μM (100%) ([1]; 100 nm): 2.96 ± 2.22%
PG release (%) compared with BK-1 μM (100%) ([1]; 300 nm): 4.69 ± 1.21%
PG relaease (%) compared with BK-1 μM (100%) (B2 receptor [2]; 10 μM + 1 μM HOE-140): 5 ± 4.45%
PG relaease (%) compared with BK-1 μM (100%) (B2 receptor [2]; 10 μM, without HOE-140): 23.18 ± 3.65%
PG synthesis blocked by 1 μM HOE-140 (B2 receptor [2]): 80%

CCCc1nc2c(C)cc(-c3nc4ccccc4n3C)cc2n1Cc1ccc(-c2ccccc2C(=O)O)cc1 [Telmisartan, 2-(4-{[4-methyl-6-(1-methyl-1H-1,3-benzodiazol-2-yl)-2-propyl-1H-1,3-benzodiazol-1-yl]methyl}phenyl)benzoic acid]
PG release (%) compared with BK-1 μM (100%) ([1]; 1 μM): 9.01 ± 1.35%
PG release (%) compared with BK-1 μM (100%) ([1]; 3 μM): 13.56 ± 1.56%
PG release (%) compared with BK-1 μM (100%) ([1]; 10 μM): 14.56 ± 2.42%
effect relative to the effect of 1 μM of bradykinin (PG secretion) ([1]; 30 μM): ~25%
PG release (%) compared with BK-1 μM (100%) ([1]; 30 μM): 25.46 ± 3.48%
PG release (%) compared with BK-1 μM (100%) ([1]; 30 nm): 4.48 ± 1.54%
PG release (%) compared with BK-1 μM (100%) ([1]; 100 nm): 4.69 ± 1.78%
PG release (%) compared with BK-1 μM (100%) ([1]; 300 nm): 6.46 ± 3.1%
PG relaease (%) compared with BK-1 μM (100%) (B2 receptor [2]; 10 μM + 1 μM HOE-140): 3 ± 2.03%
PG relaease (%) compared with BK-1 μM (100%) (B2 receptor [2]; 10 μM, without HOE-140): 14.56 ± 2.42%
PG synthesis blocked by 1 μM HOE-140 (B2 receptor [2]): 80%
half-life [4]: about 24 h
